{"source": "patent US20250109127A1", "about": "“METHODS OF USE OF PHENOXYPROPYLAMINE COMPOUNDS TO TREAT DEPRESSION” (Minerva Neurosciences, Inc., priority 2013, published 2025)", "test_system": "dopamine release in the rat prefrontal cortex", "test": "Microdialysis: dopamine release in prefrontal cortex after I.P. administration", "format": "in vivo", "settings": "for DOPAMINE (% of respective basal), individual animal: 0.1 mg/kg I.P., c2-c9 = R#13,14,20,19,25,26,31,32; for DOPAMINE (% of respective basal), individual animal / Dopamine release, individual animals: hydrochloride; for Dopamine release, MEAN / Dopamine release, individual animals: 0.3 mg/kg I.P.; for Dopamine release, MEAN: n = 8; for Dopamine release, individual animals: one column per animal R#11,12,18,23,29,30,17,24", "method": "The aim of the study was to evaluate, using microdialysis, the effects of an intraperitoneal (I.P.) administration in rats of three different doses of SON-117 on dopamine and its metabolites, serotonin and its metabolite (5-HIAA), and norepinephrine levels in prefrontal cortex.\nThirty-two adult male Wistar rats were used for the whole study (4 groups of eight animals planned for the study, Table 1).\nSurgery was performed on rats weighing about 300 g at the beginning of the experiments. Rats were anaesthetized with Ketamine (50 mg/kg) & Xylazine (15 mg/kg) by intramuscular administration. The animals were placed in a stereotaxic apparatus in the flat-skull position at a constant setting of −3.3 mm between ear bars and the incisor bar. The animals were treated with a local anesthesic (xylocaine 1%, Astra Zeneca) and an analgesic (Temgesic, from Schering Plough, 0.05 mg/kg, s.c.). A rostrocaudal midline incision was made with a lancet to expose the dorsal skull surface. The “stereotaxic zero” was defined by the Bregma in accordance with Paxinos and Watson's atlas (1986). A hole was drilled in the skull with a drill and the meninges were pierced with a sterile needle to implant a CMA12 guide cannula which later received the dialysis probe.\nCoordinates used for implanting guide cannula in prefrontal cortex from Bregma were anteroposterior 3.7 mm, mediolateral 0.8 mm, and dorsoventral −2 mm (top of the probe was at −5 mm). The guide cannula was fixed to the skull with two stainless steel screws (1.88 mm outside diameter) anchored. An application of dental cement was added. A plastic collar allowed each animal to be tethered to a Swivel assembly of the CMA 120 awake animal system. Following surgery, rats were kept in individual cages and allowed to recover for a minimum of 3-5 days before the experimentation. The rats were handled and put in plastic bowl for 10 min at least every day to habituate the animals to their new environment for the dialysis. An I.P. administration with saline was also performed every day.\nDialysis probes (CMA12/3 mm, membrane, 20 kD cut-off, Carnegie Medicine, Stockholm, Sweden), were carefully washed before inserting into the guide cannula. The wash was performed with the artificial cerebrospinal fluid (aCSF) medium (NaCl 147 mM, KCl 2.7 mM, CaCl2 1.2 mM, MgCl2 0.85 mM) at room temperature. The dialysis system was then equilibrated at 20° C. at a perfusion rate of 1 μl/min with a Carnegie pump (CMA100). All catheters (FEP tubing, internal volume of 1.2 μl/10 cm, and tubing adaptors) used for microdialysis were treated in the same conditions.\nThe probes duly prepared were inserted into the guide cannula and the CMA120 Swivel assembly secured to the animal using a plastic collar. Flow through the dialysis probe with aCSF was maintained at a rate of 1 μl/min during the whole experimentation. The first four fractions (corresponding to 2 hours) were discarded to avoid the effects of parenchymal disturbance and to ensure that an approximate steady-state level was reached. Fractions were then collected over a period of 8.5 h during which time the animals remained quiet. The dialysates were automatically collected with an autosampler (microfraction collector CMA 140, Carnegie Medicin) and stored at −80° C. until analysis. […] Perfusion was then maintained for 7 hours with aCSF. The dialysates (30 μl) were collected into 300 μl vials, transferred into dry ice and then kept frozen (−80° C.) until analysis. Frozen samples were shipped to a partner for analysis. At the end of the microdialysis study, a PBS with colored ink was perfused through the probe in order to visualize the dialyzed area.\nCatecholamine assay: Concentrations of dopamine, DOPAC, HVA, 5-HIAA, 5-HT, and norepinephrin were determined for each sample by HPLC coupled with electrochemical detection.", "note": "Values joined by “and” are separate entries in the source; they are usually repeats but may differ in a detail not shown here. Identical values can stand only once. Counter-ions that a name gives are not always drawn."}
{"smiles": "Cc1nnc(-c2cc3c(OC[C@@H](O)CN4CCC(c5ccc(Cl)c(Cl)c5)CC4)cccc3o2)o1", "note": "[SON-117, (S)-1-(4-(3,4-dichlorophenyl)piperidino)-3-(2-(5-methyl-1,3,4-oxadiazol-2-yl)benzo(b)furan-4-yloxy)-2-propanol hydrochloride]", "values": [{"measurement": "DOPAMINE (% of respective basal), individual animal", "setting": "T30-T1 h", "value": "78.42 % of respective basal and 144.00 % of respective basal and 128.77 % of respective basal and 71.43 % of respective basal and 151.01 % of respective basal and 47.86 % of respective basal and 101.52 % of respective basal"}, {"measurement": "DOPAMINE (% of respective basal), individual animal", "setting": "T1 h 30-T2 h", "value": "36.00 % of respective basal and 142.72 % of respective basal and 334.21 % of respective basal and 140.61 % of respective basal and 189.68 % of respective basal and 109.22 % of respective basal and 110.24 % of respective basal"}, {"measurement": "DOPAMINE (% of respective basal), individual animal", "setting": "T1 h-T1 h 30", "value": "48.68 % of respective basal and 33.57 % of respective basal and 218.55 % of respective basal and 176.05 % of respective basal and 99.52 % of respective basal and 198.57 % of respective basal and 106.01 % of respective basal and 103.54 % of respective basal"}, {"measurement": "DOPAMINE (% of respective basal), individual animal", "setting": "T2 h 30-T3 h", "value": "23.71 % of respective basal and 100.08 % of respective basal and 315.3 % of respective basal and 95.2 % of respective basal and 171.39 % of respective basal and 293.73 % of respective basal and 72.19 % of respective basal and 35.99 % of respective basal"}, {"measurement": "DOPAMINE (% of respective basal), individual animal", "setting": "T2 h-T2 h 30", "value": "84.44 % of respective basal and 172.82 % of respective basal and 179.35 % of respective basal and 87.73 % of respective basal and 1288.95 % of respective basal and 305.56 % of respective basal and 131.13 % of respective basal and 45.72 % of respective basal"}, {"measurement": "DOPAMINE (% of respective basal), individual animal", "setting": "T3 h 30-T4 h", "value": "23.36 % of respective basal and 145.75 % of respective basal and 464.25 % of respective basal and 43.13 % of respective basal and 194.11 % of respective basal and 295.73 % of respective basal and 45.38 % of respective basal and 34.94 % of respective basal"}, {"measurement": "DOPAMINE (% of respective basal), individual animal", "setting": "T3 h-T3 h 30", "value": "40.16 % of respective basal and 117.963 % of respective basal and 93.88 % of respective basal and 47.74 % of respective basal and 225.34 % of respective basal and 586.07 % of respective basal and 48.38 % of respective basal and 40.61 % of respective basal"}, {"measurement": "DOPAMINE (% of respective basal), individual animal", "setting": "T4 h 30-T5 h", "value": "196.31 % of respective basal and 152.43 % of respective basal and 409.91 % of respective basal and 45.90 % of respective basal and 293.48 % of respective basal and 662.65 % of respective basal and 73.568 % of respective basal and 92.51 % of respective basal"}, {"measurement": "DOPAMINE (% of respective basal), individual animal", "setting": "T4 h-T4 h 30", "value": "91.54 % of respective basal and 75.24 % of respective basal and 423.55 % of respective basal and 28.53 % of respective basal and 308.40 % of respective basal and 676.86 % of respective basal and 63.428 % of respective basal and 58.94 % of respective basal"}, {"measurement": "DOPAMINE (% of respective basal), individual animal", "setting": "T5 h 30-T6 h", "value": "107.62 % of respective basal and 109.11 % of respective basal and 218.37 % of respective basal and 42.54 % of respective basal and 135.41 % of respective basal and 709.30 % of respective basal and 42.94 % of respective basal and 140.37 % of respective basal"}, {"measurement": "DOPAMINE (% of respective basal), individual animal", "setting": "T5 h-T5 h 30", "value": "110.75 % of respective basal and 148.81 % of respective basal and 228.76 % of respective basal and 47.98 % of respective basal and 200.12 % of respective basal and 601.17 % of respective basal and 21.81 % of respective basal and 112.11 % of respective basal"}, {"measurement": "DOPAMINE (% of respective basal), individual animal", "setting": "T6 h 30-T7 h", "value": "78.29 % of respective basal and 188.44 % of respective basal and 933.712 % of respective basal and 63.21 % of respective basal and 1205.29 % of respective basal and 126.67 % of respective basal"}, {"measurement": "DOPAMINE (% of respective basal), individual animal", "setting": "T6 h-T6 h 30", "value": "130.81 % of respective basal and 238.5 % of respective basal and 88.84 % of respective basal and 62.29 % of respective basal and 146.28 % of respective basal and 882.60 % of respective basal and 95.56 % of respective basal and 166.52 % of respective basal"}, {"measurement": "Dopamine release, MEAN", "setting": "T0-T30 min", "value": "128.24 % of respective basal"}, {"measurement": "Dopamine release, MEAN", "setting": "T30-T1 h", "value": "131.35 % of respective basal"}, {"measurement": "Dopamine release, individual animals", "setting": "T30-T1 h", "value": "103.18 % of respective basal and 54.05 % of respective basal and 146.65 % of respective basal and 93.66 % of respective basal and 168.96 % of respective basal and 281.64 % of respective basal and 59.20 % of respective basal and 143.48 % of respective basal"}, {"measurement": "Dopamine release, MEAN", "setting": "T1 h 30-T2 h", "value": "90.06 % of respective basal"}, {"measurement": "Dopamine release, individual animals", "setting": "T1 h 30-T2 h", "value": "91.90 % of respective basal and 29.89 % of respective basal and 33.64 % of respective basal and 64.84 % of respective basal and 106.30 % of respective basal and 119.82 % of respective basal and 81.21 % of respective basal and 192.86 % of respective basal"}, {"measurement": "Dopamine release, MEAN", "setting": "T1 h-T1 h 30", "value": "94.40 % of respective basal"}, {"measurement": "Dopamine release, individual animals", "setting": "T1 h-T1 h 30", "value": "50.19 % of respective basal and 44.28 % of respective basal and 51.46 % of respective basal and 70.10 % of respective basal and 123.34 % of respective basal and 256.96 % of respective basal and 56.09 % of respective basal and 102.79 % of respective basal"}, {"measurement": "Dopamine release, MEAN", "setting": "T2 h 30-T3 h", "value": "95.29 % of respective basal"}, {"measurement": "Dopamine release, individual animals", "setting": "T2 h 30-T3 h", "value": "53.62 % of respective basal and 111.85 % of respective basal and 131.64 % of respective basal and 82.81 % of respective basal and 130.53 % of respective basal and 91.04 % of respective basal and 42.56 % of respective basal and 118.24 % of respective basal"}, {"measurement": "Dopamine release, MEAN", "setting": "T2 h-T2 h 30", "value": "112.22 % of respective basal"}, {"measurement": "Dopamine release, individual animals", "setting": "T2 h-T2 h 30", "value": "78.18 % of respective basal and 201.28 % of respective basal and 102.58 % of respective basal and 57.76 % of respective basal and 140.27 % of respective basal and 171.47 % of respective basal and 131.71 % of respective basal and 14.48 % of respective basal"}, {"measurement": "Dopamine release, MEAN", "setting": "T3 h 30-T4 h", "value": "131.87 % of respective basal"}, {"measurement": "Dopamine release, individual animals", "setting": "T3 h 30-T4 h", "value": "348.64 % of respective basal and 164.63 % of respective basal and 39.78 % of respective basal and 87.76 % of respective basal and 122.97 % of respective basal and 30.76 % of respective basal and 128.55 % of respective basal"}, {"measurement": "Dopamine release, MEAN", "setting": "T3 h-T3 h 30", "value": "133.65 % of respective basal"}, {"measurement": "Dopamine release, individual animals", "setting": "T3 h-T3 h 30", "value": "263.92 % of respective basal and 284.14 % of respective basal and 32.71 % of respective basal and 88.53 % of respective basal and 186.05 % of respective basal and 14.29 % of respective basal and 65.93 % of respective basal"}, {"measurement": "Dopamine release, MEAN", "setting": "T4 h 30-T5 h", "value": "99.61 % of respective basal"}, {"measurement": "Dopamine release, individual animals", "setting": "T4 h 30-T5 h", "value": "204.04 % of respective basal and 138.52 % of respective basal and 77.42 % of respective basal and 28.77 % of respective basal and 97.45 % of respective basal and 26.06 % of respective basal and 62.98 % of respective basal and 161.60 % of respective basal"}, {"measurement": "Dopamine release, MEAN", "setting": "T4 h-T4 h 30", "value": "126.41 % of respective basal"}, {"measurement": "Dopamine release, individual animals", "setting": "T4 h-T4 h 30", "value": "99.34 % of respective basal and 210.06 % of respective basal and 195.26 % of respective basal and 40.10 % of respective basal and 119.18 % of respective basal and 52.10 % of respective basal and 159.91 % of respective basal and 135.30 % of respective basal"}, {"measurement": "Dopamine release, MEAN", "setting": "T5 h 30-T6 h", "value": "263.98 % of respective basal"}]}
